Reference: BindingDB's records for doi:10.1002/bip.20588 (University of California Davis, 2006)
*1 amine or outer side, *2 acyl side, *3 side chain or, on linkers, in order; H or OH if unused. Where a SMILES comes first, the peptide text is derived from it. [ ]: non-standard residue; d: D form. The star is where a group is joined. ξ: configuration not given here. X1 = O=C(Cc1ccc(N[*:1])cc1)[*:2]; Aad = N[C@@H](CCCC(=O)O)C(=O)O; Ile(3ξ) = CCC(C)[C@H](N)C(=O)O; NH(2-Me-phenyl) = Cc1ccccc1N*; Nle = CCCC[C@H](N)C(=O)O; CO = O=C([*:1])[*:2]

Molecular target: Integrin alpha-4/beta-1 (Homo sapiens, UniProt P05556+P13612, T112H)
Assay: Jurkat Cell Adhesion Inhibition Assay

IC50: 3.4 nM
SMILES: CCCC[C@H](NC(=O)Cc1ccc(NC(=O)Nc2ccccc2C)cc1)C(=O)N[C@@H](CCCC(=O)O)C(=O)N[C@H](C(=O)N1CCC[C@H]1C(N)=O)C(C)CC (stereo partly drawn) [(5S)-5-{[(2S,3S)-1-[(2S)-2-carbamoylpyrrolidin-1-yl]-3-methyl-1-oxopentan-2-yl]carbamoyl}-5-[(2S)-2-[1-(4-{[(2-methylphenyl)carbamoyl]amino}phenyl)acetamido]hexanamido]pentanoic acid] ({NH(2-Me-phenyl)-CO}-[X1][Nle][Aad][Ile(3ξ)]P-NH2)
